Experimental data: patent US20030212014A1 (priority 2000, published 2003)

Tested on: HUVEC
Test: Fatty acid metabolism and malonyl CoA in HUVEC after 24 hr in 30 mM glucose
Format: cell-based, human
Settings: 30 mM glucose + 1 mM AICAR
Description: Fatty acid oxidation was measured over 2 hours after 24 hr prelabeling with ^3H-palmitate. Data are means ±SD (n=4−6). *P<0.05; vs 5 mM glucose. † p<0.05; vs 30 mM glucose;
We have previously shown that incubation of HUVEC for 2 hr in media containing 30 mM vs 5 mM glucose causes no changes in AMPK activity, malonyl CoA concentration, fatty acid oxidation, or lactate release. […] In addition, it impaired Akt phosphorylation in the presence of insulin (FIG. 11). […] AMPK activity tended to be higher after 24 h of incubation with 30 mM glucose; however, whether it was inappropriately low, in light of the decrease in ATP content (and presumably an increased AMP/ATP ratio), was not ascertained.

NC(=O)c1ncn([C@@H]2O[C@H](CO)[C@@H](O)[C@H]2O)c1N [AICAR, 5-aminoimidizole-4-carboxamide riboside]
concentration of malonyl-CoA: even lower than that in cells incubated with 5 mM glucose | diminished fatty acid oxidation caused by 30 mM glucose: completely prevented | increased incorporation of radioactive glucose and palmitate into diacylglycerol caused by 30 mM glucose: completely prevented
